Source: patent US9206159B2, “Piperazine-piperidine compounds as hepatitis C virus inhibitors” (Theravance Biopharma R&D IP, LLC, priority 2012, dated 2015)

Test system: HCV genotype 1a replicon cell line
Experiment: HCV Genotype 1a Replicon Assay
Type: cell-based, hepatitis C virus
Conditions: Hepatitis C virus, Huh7.5 cell background, NS3-specific protease activity in lysates, 48 or 72 hours, read-out: Genotype 1a (pEC50 class) (converted)
Protocol: Assay 2: HCV Genotype 1a Replicon Assay
The HCV genotype 1a replicon cell line was obtained from Apath LLC (APC89; Huh7.5 cell background). This subgenomic replicon contains the N-terminus of the HCV core protein fused to the neomycin-resistance selectable marker. The EMCV IRES lies downstream and drives expression of the non-structural proteins NS3-NS5B. Compound potencies were determined using the NS3-specific protease activity in lysates as a measurement of compound inhibition of replicon levels.
Cells were grown at 37° C. in a 5% CO2 humidified incubator in DMEM (Invitrogen) with 10% FBS (HyClone), 1×NEAA (Invitrogen), 1× Pen-Strep (Invitrogen), and 850 μg/mL G418 (Invitrogen). On day 1 of the assay, cells were plated at 15,000 cells/well in black 96-well tissue culture plates (Costar) in 200 μL media lacking G418. Four hours later, once the cells had adhered, the media was removed and replaced with media (no G418) containing dose-responses of test compounds. Compounds were initially diluted in DMSO and then diluted another 200× in media to bring the final DMSO concentration down to 0.5%. The cells were incubated with test compounds for 48 or 72 hours. At the end of the incubation period, media and compound were removed from the plates.
To determine the NS3-specific protease activity in lysates, the cells were lysed at room temperature in 50 μL/well of 50 mM Hepes pH 7.5, 150 mM NaCl, 15% Glycerol, 0.15% Triton X-100, 10 mM DTT for 20 minutes with shaking. 50 μL of an NS3/4a protease-specific FRET substrate (Anaspec RET SI Cat#22991) was then added to the wells at a final concentration of 15 μM. The plates were incubated at 37° C. for 20 minutes, which corresponds to a timepoint at which the protease activity is still in the linear phase. Protease activity was determined by measuring fluorescence (Excitation: 340 nm; Emission: 509 nm).
To analyze the data, the fluorescence was plotted vs. the compound concentration, and EC50 values were determined from a 4-parameter robust fit model using GraphPad Prism software.

| Structure (SMILES) | EC50 |
| --- | --- |
| COC(=O)N[C@H](C(=O)N1C[C@@H](C)C[C@H]1c1nc(-c2ccc(-c3cc(Cl)c(NC(=O)N4CCN(C5CCN(C(=O)C6CC6(Cl)Cl)CC5)CC4)cc3OC(F)(F)F)cc2)c[nH]1)C(C)C (stereo partly drawn) [Example 2, [(S)-1-((S)-2-{4-[5′-Chloro-4′-({4-[1-(2,2-dichloro-cyclopropanecarbonyl)-piperidin-4-yl]-piperazine-1-carbonyl}-amino)-2′-trifluoromethoxy-biphenyl-4-yl]-1H-imidazol-2-yl}-4-methyl-pyrrolidine-1-carbonyl)-2-methyl-propyl]-carbamic acid methyl ester] | 1 to 10 nM |

Same assay, conditions: Huh7.5 cell background, NS3-specific protease activity in lysates, 48 or 72 hours

| Structure (SMILES) | Genotype 1a (pEC50 class) |
| --- | --- |
| COC(=O)NC(C(=O)N1CCCC1c1nc(-c2ccc(-c3ccc(NC(=O)N4CCN(C5CCN(C(=O)C(C)(C)C)CC5)C(CO)C4)cc3OC(F)(F)F)cc2)c[nH]1)C(C)C (centres unmarked) [Example 1-42] | B (B represents pEC50 between 8 and 9 (EC50 between 1 and 10 nM)) |
| CNC(=O)N1CCC(N2CCN(C(=O)Nc3ccc(-c4ccc(-c5c[nH]c(C6CCCN6C(=O)C(NC(=O)OC)C(C)C)n5)cc4)c(OC(F)(F)F)c3)CC2CO)CC1 (centres unmarked) [Example 1-43] | A (A represents a pEC50 value between 6 and 8 (EC50 between 1 μM and 10 nM)) |
| COC(=O)NC(C(=O)N1CCCC1c1nc(-c2ccc(-c3ccc(NC(=O)N4CCN(C5CCN(C(=O)C6CC6)CC5)C(CO)C4)cc3OC(F)(F)F)cc2)c[nH]1)C(C)C (centres unmarked) [Example 1-44] | A (A represents a pEC50 value between 6 and 8 (EC50 between 1 μM and 10 nM)) |
| COC(=O)NC(C(=O)N1CCCC1c1nc(-c2ccc(-c3ccc(NC(=O)N4CCN(C5CCN(C(=O)C6CC6(C)C)CC5)C(CO)C4)cc3OC(F)(F)F)cc2)c[nH]1)C(C)C (centres unmarked) [Example 1-45] | B (B represents pEC50 between 8 and 9 (EC50 between 1 and 10 nM)) |
| COC(=O)N[C@H](C(=O)N1C[C@@H](C)C[C@H]1c1nc(-c2ccc(-c3ccc(NC(=O)N4CCN(C5CCN(C(=O)C6CC6)CC5)CC4)cc3OC(F)(F)F)cc2)c[nH]1)C(C)C [Example 2-1] | D (D represents pEC50>10 (EC50<0.1 nM)) |
| COC(=O)N[C@H](C(=O)N1C[C@@H](C)C[C@H]1c1nc(-c2ccc(-c3cc(F)c(NC(=O)N4CCN(C5CCN(C(=O)OC(C)(C)C)CC5)CC4)cc3OC(F)(F)F)cc2)c[nH]1)C(C)C [Example 2-2] | D (D represents pEC50>10 (EC50<0.1 nM)) |
| COC(=O)N[C@H](C(=O)N1C[C@@H](C)C[C@H]1c1nc(-c2ccc(-c3cc(F)c(NC(=O)N4CCN(C5CCN(C(=O)C6CC6)CC5)CC4)cc3OC(F)(F)F)cc2)c[nH]1)C(C)C [Example 2-3] | D (D represents pEC50>10 (EC50<0.1 nM)) |
| CNC(=O)N1CCC(N2CCN(C(=O)Nc3cc(OC(F)(F)F)c(-c4ccc(-c5c[nH]c([C@@H]6C[C@H](C)CN6C(=O)[C@@H](NC(=O)OC)C(C)C)n5)cc4)cc3F)CC2)CC1 [Example 2-4] | D (D represents pEC50>10 (EC50<0.1 nM)) |
| CNC(=O)N1CCC(N2CCN(C(=O)Nc3cc(OC(F)(F)F)c(-c4ccc(-c5c[nH]c([C@@H]6C[C@H](C)CN6C(=O)[C@@H](NC(=O)OC)C(C)C)n5)cc4)cc3Cl)CC2)CC1 [Example 2-7] | C (C represents pEC50 between and 9 and about 10, (EC50 between 1 nM and 0.1 nM)) |
| COC(=O)N[C@H](C(=O)N1C[C@@H](C)C[C@H]1c1nc(-c2ccc(-c3cc(Cl)c(NC(=O)N4CCN(C5CCN(C(=O)OC(C)(C)C)CC5)CC4)cc3OC(F)(F)F)cc2)c[nH]1)C(C)C [Example 2-8] | C (C represents pEC50 between and 9 and about 10, (EC50 between 1 nM and 0.1 nM)) |
| COC(=O)N[C@H](C(=O)N1C[C@@H](C)C[C@H]1c1nc(-c2ccc(-c3ccc(NC(=O)N4CCN(C5CCN(C(=O)C6CC6(F)F)CC5)CC4)cc3OC(F)(F)F)cc2)c[nH]1)C(C)C (some centres unmarked) [Example 2-10] | C (C represents pEC50 between and 9 and about 10, (EC50 between 1 nM and 0.1 nM)) |
| COC(=O)N[C@H](C(=O)N1C[C@@H](C)C[C@H]1c1nc(-c2ccc(-c3ccc(NC(=O)N4CCN(C5CCN(C(=O)[C@H]6CC6(C)C)CC5)CC4)cc3OC(F)(F)F)cc2)c[nH]1)C(C)C [Example 2-11] | D (D represents pEC50>10 (EC50<0.1 nM)) |
| CNC(=O)N1CCC(N2CCN(C(=O)Nc3ccc(-c4ccc(-c5c[nH]c([C@@H]6C[C@H](C)CN6C(=O)[C@@H](NC(=O)OC)C(C)C)n5)cc4)c(OC(F)(F)F)c3)CC2)CC1 [Example 2-12] | C (C represents pEC50 between and 9 and about 10, (EC50 between 1 nM and 0.1 nM)) |
| COC(=O)N[C@H](C(=O)N1C[C@@H](C)C[C@H]1c1nc(-c2ccc(-c3cc(F)c(NC(=O)N4CCN(C5CCN(C(=O)C6CC6(F)Cl)CC5)CC4)cc3OC(F)(F)F)cc2)c[nH]1)C(C)C (some centres unmarked) [Example 2-14] | C (C represents pEC50 between and 9 and about 10, (EC50 between 1 nM and 0.1 nM)) |
| COC(=O)N[C@H](C(=O)N1C[C@@H](C)C[C@H]1c1nc(-c2ccc(-c3cc(F)c(NC(=O)N4CCN(C5CCN(C(=O)C6CC6(Cl)Cl)CC5)CC4)cc3OC(F)(F)F)cc2)c[nH]1)C(C)C (some centres unmarked) [Example 2-15] | C (C represents pEC50 between and 9 and about 10, (EC50 between 1 nM and 0.1 nM)) |
| COC(=O)N[C@H](C(=O)N1C[C@@H](C)C[C@H]1c1nc(-c2ccc(-c3ccc(NC(=O)N4CCN(C5CCN(C(=O)OC(C)(C)C)CC5)CC4)cc3OC(F)(F)F)cc2)c(Cl)[nH]1)C(C)C [Example 2-18] | C (C represents pEC50 between and 9 and about 10, (EC50 between 1 nM and 0.1 nM)) |
| COC(=O)N[C@H](C(=O)N1C[C@@H](C)C[C@H]1c1nc(-c2ccc(-c3cc(Cl)c(NC(=O)N4CCN(C5CCN(C(=O)C6CC(F)(F)C6)CC5)CC4)cc3OC(F)(F)F)cc2)c[nH]1)C(C)C [Example 2-22] | B (B represents pEC50 between 8 and 9 (EC50 between 1 and 10 nM)) |
| [2H]C([2H])([2H])C1(C([2H])([2H])[2H])CC1C(=O)N1CCC(N2CCN(C(=O)Nc3cc(OC(F)(F)F)c(-c4ccc(-c5c[nH]c([C@@H]6C[C@H](C)CN6C(=O)[C@@H](NC(=O)OC)C(C)C)n5)cc4)cc3Cl)CC2)CC1 (some centres unmarked) [Example 2-23] | C (C represents pEC50 between and 9 and about 10, (EC50 between 1 nM and 0.1 nM)) |
| COC(=O)N[C@H](C(=O)N1C[C@@H](C)C[C@H]1c1nc(-c2ccc(-c3cc(Cl)c(NC(=O)N4CCN(C5CCN(C(=O)C6CC67CC7)CC5)CC4)cc3OC(F)(F)F)cc2)c[nH]1)C(C)C (some centres unmarked) [Example 2-24] | B (B represents pEC50 between 8 and 9 (EC50 between 1 and 10 nM)) |
| COC(=O)N[C@H](C(=O)N1C[C@@H](C)C[C@H]1c1nc(-c2ccc(-c3cc(Cl)c(NC(=O)N4CCN(C5CCN(C(=O)C6CC(C)(C)C6)CC5)CC4)cc3OC(F)(F)F)cc2)c[nH]1)C(C)C [Example 2-25] | B (B represents pEC50 between 8 and 9 (EC50 between 1 and 10 nM)) |
| COC(=O)N[C@H](C(=O)N1C[C@@H](C)C[C@H]1c1nc(-c2ccc(-c3ccc(NC(=O)N4CCN(C5CCN(C(=O)C6CC6)CC5)CC4)cc3OC(F)(F)F)cc2)c(Cl)[nH]1)C(C)C [Example 2-26] | D (D represents pEC50>10 (EC50<0.1 nM)) |
| [2H]C([2H])([2H])C1(C([2H])([2H])[2H])CC1C(=O)N1CCC(N2CCN(C(=O)Nc3ccc(-c4ccc(-c5nc([C@@H]6C[C@H](C)CN6C(=O)[C@@H](NC(=O)OC)C(C)C)[nH]c5Cl)cc4)c(OC(F)(F)F)c3)CC2)CC1 (some centres unmarked) [Example 2-27] | D (D represents pEC50>10 (EC50<0.1 nM)) |
